{"source": "paper PMC7181660", "about": "“A novel specific PERK activator reduces toxicity and extends survival in Huntington's disease models” (Scientific Reports, 2020)", "experiment_in_all_cases": "biochemical", "format_in_all_cases": "biochemical", "key": {"[1]": {"biological_target": "panel of 391 kinases (Homo sapiens, UniProt Q9H422)", "details": "HIPK3, MK-28 1 µM, ATP 1 µM"}, "[2]": {"biological_target": "panel of 391 kinases (Homo sapiens, UniProt Q9H2G2)", "details": "SLK/STK2, MK-28 1 µM, ATP 1 µM"}, "[3]": {"biological_target": "panel of 391 kinases (Homo sapiens, UniProt Q15835)", "details": "GRK1, MK-28 1 µM, ATP 1 µM"}, "[4]": {"biological_target": "panel of 391 kinases (Homo sapiens, UniProt Q15139)", "details": "PKCmu/PRKD1, MK-28 1 µM, ATP 1 µM"}, "[5]": {"biological_target": "panel of 391 kinases (Homo sapiens, UniProt P34947)", "details": "GRK5, MK-28 1 µM, ATP 1 µM"}, "[6]": {"biological_target": "panel of 391 kinases (Homo sapiens, UniProt P54646)", "sequence (P54646 whole entry)": "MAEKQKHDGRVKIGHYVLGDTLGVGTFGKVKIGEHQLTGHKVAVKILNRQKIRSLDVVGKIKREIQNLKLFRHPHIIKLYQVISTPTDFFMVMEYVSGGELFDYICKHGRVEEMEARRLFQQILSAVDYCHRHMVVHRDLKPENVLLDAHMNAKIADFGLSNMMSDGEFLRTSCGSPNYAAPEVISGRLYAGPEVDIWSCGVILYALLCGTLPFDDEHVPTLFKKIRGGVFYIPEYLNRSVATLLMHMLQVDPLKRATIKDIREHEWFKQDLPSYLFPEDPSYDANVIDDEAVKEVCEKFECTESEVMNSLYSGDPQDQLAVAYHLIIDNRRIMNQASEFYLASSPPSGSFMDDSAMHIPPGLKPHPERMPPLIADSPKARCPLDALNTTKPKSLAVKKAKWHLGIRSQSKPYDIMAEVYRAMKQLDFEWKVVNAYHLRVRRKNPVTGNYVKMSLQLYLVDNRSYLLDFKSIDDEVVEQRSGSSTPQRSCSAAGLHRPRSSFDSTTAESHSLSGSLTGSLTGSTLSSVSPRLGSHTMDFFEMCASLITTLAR", "details": "compound at 1 µM, single dose in duplicates, 1 µM ATP; for remaining activity at 1 µM: read-out: % Enzyme Activity (relative to DMSO controls)"}, "[7]": {"biological_target": "panel of 391 kinases (Homo sapiens, UniProt Q16654)", "sequence (Q16654 whole entry)": "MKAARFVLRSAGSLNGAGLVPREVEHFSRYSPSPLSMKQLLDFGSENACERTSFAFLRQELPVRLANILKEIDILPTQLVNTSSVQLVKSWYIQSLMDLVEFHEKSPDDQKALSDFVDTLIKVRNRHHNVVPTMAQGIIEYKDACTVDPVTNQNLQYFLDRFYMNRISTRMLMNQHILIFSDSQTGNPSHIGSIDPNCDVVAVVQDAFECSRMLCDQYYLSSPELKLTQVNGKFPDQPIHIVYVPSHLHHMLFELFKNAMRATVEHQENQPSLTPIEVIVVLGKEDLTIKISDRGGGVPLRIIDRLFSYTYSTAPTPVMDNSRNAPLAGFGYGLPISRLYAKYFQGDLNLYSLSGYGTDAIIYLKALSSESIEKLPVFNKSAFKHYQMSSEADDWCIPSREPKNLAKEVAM", "details": "kinase PDK4/PDKH4, compound at 1 µM, single dose in duplicates, 1 µM ATP"}, "[8]": {"biological_target": "panel of 391 kinases (Homo sapiens, UniProt P06241)", "details": "FYN, MK-28 1 µM, ATP 1 µM"}, "[9]": {"biological_target": "panel of 391 kinases (Homo sapiens, UniProt P53355)", "details": "DAPK1, MK-28 1 µM, ATP 1 µM"}, "[10]": {"biological_target": "panel of 391 kinases (Homo sapiens, UniProt Q56UN5)", "details": "YSK4/MAP3K19, MK-28 1 µM, ATP 1 µM"}, "[11]": {"biological_target": "panel of 391 kinases (Homo sapiens, UniProt Q76MJ5)", "sequence (Q76MJ5 35-926)": "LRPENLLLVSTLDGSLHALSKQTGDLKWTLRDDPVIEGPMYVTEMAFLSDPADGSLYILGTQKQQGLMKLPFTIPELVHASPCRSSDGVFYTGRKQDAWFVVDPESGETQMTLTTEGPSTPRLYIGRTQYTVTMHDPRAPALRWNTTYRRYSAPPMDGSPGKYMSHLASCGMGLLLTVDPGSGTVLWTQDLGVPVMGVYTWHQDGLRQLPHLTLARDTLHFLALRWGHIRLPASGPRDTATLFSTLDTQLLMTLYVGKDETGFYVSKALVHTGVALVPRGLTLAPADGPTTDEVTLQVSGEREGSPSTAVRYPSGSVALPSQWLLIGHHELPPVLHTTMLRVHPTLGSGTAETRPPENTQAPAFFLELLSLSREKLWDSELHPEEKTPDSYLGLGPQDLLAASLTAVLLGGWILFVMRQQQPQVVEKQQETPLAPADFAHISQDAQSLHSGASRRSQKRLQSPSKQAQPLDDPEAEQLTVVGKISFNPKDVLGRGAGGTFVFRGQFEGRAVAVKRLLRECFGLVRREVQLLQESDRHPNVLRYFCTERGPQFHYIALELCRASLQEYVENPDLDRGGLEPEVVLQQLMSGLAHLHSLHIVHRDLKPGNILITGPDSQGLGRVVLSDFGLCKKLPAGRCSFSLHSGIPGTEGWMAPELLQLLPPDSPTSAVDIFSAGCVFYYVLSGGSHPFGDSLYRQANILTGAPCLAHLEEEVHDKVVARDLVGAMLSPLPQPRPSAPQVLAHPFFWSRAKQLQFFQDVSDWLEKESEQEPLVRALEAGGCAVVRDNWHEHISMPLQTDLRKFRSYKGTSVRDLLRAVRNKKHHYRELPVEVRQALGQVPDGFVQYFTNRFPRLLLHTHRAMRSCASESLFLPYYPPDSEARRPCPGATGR", "details": "ERN2/IRE2, MK-28 1 µM, ATP 1 µM"}, "[12]": {"biological_target": "panel of 391 kinases (Homo sapiens, UniProt O15075)", "sequence (O15075 whole entry)": "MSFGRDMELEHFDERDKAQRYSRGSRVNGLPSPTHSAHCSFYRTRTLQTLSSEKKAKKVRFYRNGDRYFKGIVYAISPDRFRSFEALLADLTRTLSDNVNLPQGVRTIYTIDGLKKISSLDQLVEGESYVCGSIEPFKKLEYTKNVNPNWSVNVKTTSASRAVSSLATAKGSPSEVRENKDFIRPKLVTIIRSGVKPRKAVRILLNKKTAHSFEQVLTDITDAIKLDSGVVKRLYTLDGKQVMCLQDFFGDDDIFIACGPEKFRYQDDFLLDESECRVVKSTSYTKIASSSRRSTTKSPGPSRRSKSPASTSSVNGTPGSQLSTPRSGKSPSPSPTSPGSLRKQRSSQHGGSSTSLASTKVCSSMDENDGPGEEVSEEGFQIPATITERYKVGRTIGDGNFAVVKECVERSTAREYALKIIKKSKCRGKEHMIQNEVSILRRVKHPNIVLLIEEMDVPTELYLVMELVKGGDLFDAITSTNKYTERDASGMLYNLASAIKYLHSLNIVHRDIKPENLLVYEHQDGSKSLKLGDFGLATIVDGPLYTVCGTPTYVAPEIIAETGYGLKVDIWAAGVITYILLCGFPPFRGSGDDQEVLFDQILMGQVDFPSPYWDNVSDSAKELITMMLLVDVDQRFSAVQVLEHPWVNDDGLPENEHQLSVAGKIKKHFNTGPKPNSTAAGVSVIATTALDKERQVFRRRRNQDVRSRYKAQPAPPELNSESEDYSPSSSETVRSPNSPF", "details": "DCAMKL1, MK-28 1 µM, ATP 1 µM"}, "[13]": {"biological_target": "panel of 391 kinases (Homo sapiens, UniProt Q16288)", "sequence (Q16288 32-839)": "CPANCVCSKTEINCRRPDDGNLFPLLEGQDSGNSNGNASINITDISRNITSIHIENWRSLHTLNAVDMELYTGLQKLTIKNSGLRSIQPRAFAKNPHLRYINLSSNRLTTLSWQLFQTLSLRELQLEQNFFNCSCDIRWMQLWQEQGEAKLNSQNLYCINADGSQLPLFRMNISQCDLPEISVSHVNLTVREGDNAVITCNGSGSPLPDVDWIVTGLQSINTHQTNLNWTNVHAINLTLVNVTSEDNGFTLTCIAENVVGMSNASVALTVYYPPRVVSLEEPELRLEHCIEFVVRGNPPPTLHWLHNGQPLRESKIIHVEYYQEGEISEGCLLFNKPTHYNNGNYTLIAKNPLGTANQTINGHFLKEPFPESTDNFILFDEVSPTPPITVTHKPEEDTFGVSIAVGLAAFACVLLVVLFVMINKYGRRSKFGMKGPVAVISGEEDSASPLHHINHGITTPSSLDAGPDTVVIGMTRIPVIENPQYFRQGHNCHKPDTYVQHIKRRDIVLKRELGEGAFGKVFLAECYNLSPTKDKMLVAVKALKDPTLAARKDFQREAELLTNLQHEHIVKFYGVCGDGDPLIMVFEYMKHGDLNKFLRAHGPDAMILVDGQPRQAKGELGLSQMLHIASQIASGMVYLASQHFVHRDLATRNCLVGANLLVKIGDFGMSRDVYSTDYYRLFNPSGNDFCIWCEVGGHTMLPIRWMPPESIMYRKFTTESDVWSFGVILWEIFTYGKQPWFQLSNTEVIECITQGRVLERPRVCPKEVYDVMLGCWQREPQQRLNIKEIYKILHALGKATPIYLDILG", "details": "TRKC, MK-28 1 µM, ATP 1 µM"}, "[14]": {"biological_target": "T1, panel of 391 kinases (Homo sapiens, UniProt P10398)", "T1 sequence (P10398 1-606)": "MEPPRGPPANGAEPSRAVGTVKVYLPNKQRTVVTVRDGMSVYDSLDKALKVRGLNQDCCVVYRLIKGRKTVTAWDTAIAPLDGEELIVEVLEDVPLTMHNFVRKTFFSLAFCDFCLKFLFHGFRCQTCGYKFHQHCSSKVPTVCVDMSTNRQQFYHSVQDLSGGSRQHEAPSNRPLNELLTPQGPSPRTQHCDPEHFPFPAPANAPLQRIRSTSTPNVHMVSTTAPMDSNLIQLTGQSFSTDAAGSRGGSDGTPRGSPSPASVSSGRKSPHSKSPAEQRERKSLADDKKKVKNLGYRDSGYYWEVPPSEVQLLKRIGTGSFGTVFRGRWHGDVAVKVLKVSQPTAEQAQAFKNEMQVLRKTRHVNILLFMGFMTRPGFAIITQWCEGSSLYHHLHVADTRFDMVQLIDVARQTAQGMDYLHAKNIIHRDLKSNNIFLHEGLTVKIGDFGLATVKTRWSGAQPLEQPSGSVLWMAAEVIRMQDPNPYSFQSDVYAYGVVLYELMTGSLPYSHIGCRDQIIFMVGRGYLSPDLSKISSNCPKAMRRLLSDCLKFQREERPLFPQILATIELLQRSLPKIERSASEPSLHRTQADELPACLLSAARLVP", "details": "ARAF, MK-28 1 µM, ATP 1 µM"}, "[15]": {"biological_target": "panel of 391 kinases (Homo sapiens, UniProt Q8N568)", "sequence (Q8N568 whole entry)": "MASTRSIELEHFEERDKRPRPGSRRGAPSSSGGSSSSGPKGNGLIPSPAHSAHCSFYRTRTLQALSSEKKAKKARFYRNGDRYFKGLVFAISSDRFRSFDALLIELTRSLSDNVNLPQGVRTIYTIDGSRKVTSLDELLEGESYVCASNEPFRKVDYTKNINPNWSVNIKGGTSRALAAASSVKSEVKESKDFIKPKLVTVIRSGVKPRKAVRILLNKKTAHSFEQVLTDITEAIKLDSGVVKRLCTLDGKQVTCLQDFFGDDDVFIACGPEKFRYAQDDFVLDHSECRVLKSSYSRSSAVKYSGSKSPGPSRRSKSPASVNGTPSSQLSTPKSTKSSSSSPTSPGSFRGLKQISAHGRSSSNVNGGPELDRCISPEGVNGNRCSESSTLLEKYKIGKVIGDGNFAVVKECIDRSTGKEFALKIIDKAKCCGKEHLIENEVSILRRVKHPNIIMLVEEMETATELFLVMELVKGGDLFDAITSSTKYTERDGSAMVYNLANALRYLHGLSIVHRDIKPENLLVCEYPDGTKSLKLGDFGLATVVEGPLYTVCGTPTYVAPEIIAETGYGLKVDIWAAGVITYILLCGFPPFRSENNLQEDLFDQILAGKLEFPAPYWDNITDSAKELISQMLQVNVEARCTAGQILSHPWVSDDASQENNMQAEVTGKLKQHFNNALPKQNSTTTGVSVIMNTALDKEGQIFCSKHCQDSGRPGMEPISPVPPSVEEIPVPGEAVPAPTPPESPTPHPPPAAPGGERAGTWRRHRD", "details": "DCAMKL2, MK-28 1 µM, ATP 1 µM"}, "[16]": {"biological_target": "panel of 391 kinases (Homo sapiens, UniProt Q08345)", "details": "DDR1, MK-28 1 µM, ATP 1 µM"}, "[17]": {"biological_target": "panel of 391 kinases (Homo sapiens, UniProt O14757)", "details": "CHK1, MK-28 1 µM, ATP 1 µM"}, "[18]": {"biological_target": "panel of 391 kinases (Homo sapiens, UniProt Q9H1R3)", "details": "MLCK2/MYLK2, MK-28 1 µM, ATP 1 µM"}, "[19]": {"biological_target": "panel of 391 kinases (Homo sapiens, UniProt Q9H093)", "details": "SNARK/NUAK2, MK-28 1 µM, ATP 1 µM"}, "[20]": {"biological_target": "panel of 391 kinases (Homo sapiens, UniProt Q15569)", "sequence (Q15569 whole entry)": "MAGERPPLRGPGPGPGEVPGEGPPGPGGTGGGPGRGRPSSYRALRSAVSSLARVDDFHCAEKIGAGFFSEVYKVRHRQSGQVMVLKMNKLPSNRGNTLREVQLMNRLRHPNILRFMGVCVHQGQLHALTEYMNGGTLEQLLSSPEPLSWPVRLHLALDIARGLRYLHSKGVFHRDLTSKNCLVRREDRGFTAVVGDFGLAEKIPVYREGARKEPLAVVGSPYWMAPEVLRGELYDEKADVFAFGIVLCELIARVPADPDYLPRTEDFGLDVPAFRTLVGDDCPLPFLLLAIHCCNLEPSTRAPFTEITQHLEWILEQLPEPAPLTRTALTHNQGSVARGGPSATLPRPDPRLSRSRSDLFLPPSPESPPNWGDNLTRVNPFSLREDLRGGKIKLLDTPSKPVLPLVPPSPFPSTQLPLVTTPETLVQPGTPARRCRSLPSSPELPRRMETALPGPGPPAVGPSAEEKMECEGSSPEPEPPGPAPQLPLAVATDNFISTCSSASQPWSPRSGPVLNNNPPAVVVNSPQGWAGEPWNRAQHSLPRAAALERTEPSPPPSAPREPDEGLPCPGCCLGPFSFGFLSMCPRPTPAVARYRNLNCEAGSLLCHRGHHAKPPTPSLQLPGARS", "details": "TESK1, MK-28 1 µM, ATP 1 µM"}, "[21]": {"details": "read-out: % Enzyme Activity (relative to DMSO controls)"}}, "note": "Read-outs that look alike come from different tables or passages of the source."}
{"smiles": "CN(/N=C\\c1ccc(O)c(O)c1)c1nc(-c2ccccc2)cc(-c2ccccc2)n1", "note": "[MK-28]", "values": [{"measurement": "% Enzyme Activity (relative to DMSO controls)", "setting": "[1]", "result": 104.43, "unit": "%"}, {"measurement": "remaining activity at 1 µM", "setting": "[1]; [21]", "result": 105, "unit": "%"}, {"measurement": "% Enzyme Activity (relative to DMSO controls)", "setting": "[2]", "result": 100.63, "unit": "%"}, {"measurement": "remaining activity at 1 µM", "setting": "[2]; [21]", "result": 102, "unit": "%"}, {"measurement": "% Enzyme Activity (relative to DMSO controls)", "setting": "[3]", "result": 96.61, "unit": "%"}, {"measurement": "remaining activity at 1 µM", "setting": "[3]; [21]", "result": 102, "unit": "%"}, {"measurement": "% Enzyme Activity (relative to DMSO controls)", "setting": "[4]", "result": 94.26, "unit": "%"}, {"measurement": "remaining activity at 1 µM", "setting": "[4]; [21]", "result": 95.3, "unit": "%"}, {"measurement": "% Enzyme Activity (relative to DMSO controls)", "setting": "[5]", "result": 103.49, "unit": "%"}, {"measurement": "remaining activity at 1 µM", "setting": "[5]; [21]", "result": 104, "unit": "%"}, {"measurement": "% Enzyme Activity (relative to DMSO controls)", "setting": "[6]; kinase AMPK(A2/B1/G1)", "result": 91.41, "unit": "%"}, {"measurement": "remaining activity at 1 µM", "setting": "[6]; kinase AMPK(A2/B1/G1)", "result": 93, "unit": "%"}, {"measurement": "% Enzyme Activity (relative to DMSO controls)", "setting": "[6]; kinase AMPK(A2/B2/G1)", "result": 106.33, "unit": "%"}, {"measurement": "remaining activity at 1 µM", "setting": "[6]; kinase AMPK(A2/B2/G1)", "result": 108, "unit": "%"}, {"measurement": "% Enzyme Activity (relative to DMSO controls)", "setting": "[6]; kinase AMPK(A2/B2/G2)", "result": 103.36, "unit": "%"}, {"measurement": "remaining activity at 1 µM", "setting": "[6]; kinase AMPK(A2/B2/G2)", "result": 104, "unit": "%"}, {"measurement": "% Enzyme Activity (relative to DMSO controls)", "setting": "[6]; kinase AMPK(A2/B2/G3)", "result": 96.60, "unit": "%"}, {"measurement": "remaining activity at 1 µM", "setting": "[6]; kinase AMPK(A2/B2/G3)", "result": 98.9, "unit": "%"}, {"measurement": "% Enzyme Activity (relative to DMSO controls)", "setting": "[7]", "result": 97.96, "unit": "%"}, {"measurement": "remaining activity at 1 µM", "setting": "[7]; [21]", "result": 98.2, "unit": "%"}, {"measurement": "% Enzyme Activity (relative to DMSO controls)", "setting": "[8]", "result": 103.36, "unit": "%"}, {"measurement": "remaining activity at 1 µM", "setting": "[8]; [21]", "result": 103, "unit": "%"}, {"measurement": "% Enzyme Activity (relative to DMSO controls)", "setting": "[9]", "result": 129.26, "unit": "%"}, {"measurement": "remaining activity at 1 µM", "setting": "[9]; [21]", "result": 135, "unit": "%"}, {"measurement": "% Enzyme Activity (relative to DMSO controls)", "setting": "[10]", "result": 104.21, "unit": "%"}, {"measurement": "remaining activity at 1 µM", "setting": "[10]; [21]", "result": 106, "unit": "%"}, {"measurement": "% Enzyme Activity (relative to DMSO controls)", "setting": "[11]", "result": 97.92, "unit": "%"}, {"measurement": "remaining activity at 1 µM", "setting": "[11]; [21]", "result": 99.7, "unit": "%"}, {"measurement": "% Enzyme Activity (relative to DMSO controls)", "setting": "[12]", "result": 110.18, "unit": "%"}, {"measurement": "remaining activity at 1 µM", "setting": "[12]; [21]", "result": 111, "unit": "%"}, {"measurement": "% Enzyme Activity (relative to DMSO controls)", "setting": "[13]", "result": 91.11, "unit": "%"}, {"measurement": "remaining activity at 1 µM", "setting": "[13]; [21]", "result": 92.9, "unit": "%"}, {"measurement": "% Enzyme Activity (relative to DMSO controls)", "setting": "[14]", "result": 93.30, "unit": "%"}, {"measurement": "remaining activity at 1 µM", "setting": "[14]; [21]", "result": 96.2, "unit": "%"}, {"measurement": "% Enzyme Activity (relative to DMSO controls)", "setting": "[15]", "result": 121.14, "unit": "%"}, {"measurement": "remaining activity at 1 µM", "setting": "[15]; [21]", "result": 122, "unit": "%"}, {"measurement": "% Enzyme Activity (relative to DMSO controls)", "setting": "[16]", "result": 100.73, "unit": "%"}, {"measurement": "remaining activity at 1 µM", "setting": "[16]; [21]", "result": 103, "unit": "%"}, {"measurement": "% Enzyme Activity (relative to DMSO controls)", "setting": "[17]", "result": 141.74, "unit": "%"}, {"measurement": "remaining activity at 1 µM", "setting": "[17]; [21]", "result": 150, "unit": "%"}, {"measurement": "% Enzyme Activity (relative to DMSO controls)", "setting": "[18]", "result": 95.96, "unit": "%"}, {"measurement": "remaining activity at 1 µM", "setting": "[18]; [21]", "result": 96.4, "unit": "%"}, {"measurement": "% Enzyme Activity (relative to DMSO controls)", "setting": "[19]", "result": 94.11, "unit": "%"}, {"measurement": "remaining activity at 1 µM", "setting": "[19]; [21]", "result": 95.6, "unit": "%"}, {"measurement": "% Enzyme Activity (relative to DMSO controls)", "setting": "[20]", "result": 66.57, "unit": "%"}, {"measurement": "remaining activity at 1 µM", "setting": "[20]; [21]", "result": 66.7, "unit": "%"}]}
